Columns and labels:
[1] = tested on: C57BL/6 mice; test: MK801 induced abnormally persistent latent inhibition; assay type: in vivo; settings: 4 tone-shock pairings to produce low LI
Procedure: C57BL/6 mice will be used to investigate latent inhibition (LI) conditioned emotional response cessation of drinking model in mice as described in, e.g., Bay-Richter, et al., Enhanced Latent Inhibition in Dopamine Receptor-Deficient Mice is Sex-Specific for the D1 but not D2 Receptor Subtype: Implications for Antipsychotic Drug Action, Int. J. Neuropsychopharmacol. […] On Day 1 to Day 6, animals will undergo lick training where mice will have access to water in a chamber for 15 minutes and the number of licks per animal will be recorded. […] One group will receive 20 presentations [determined from prior experiments to produce reduced LI in controls] of a 5 second 85 dB tone with a 15 second inter-stimulus interval (pre-exposed group, PE); a control group of non-pre-exposed (NPE) mice will be placed in a testing chamber with access to water withdrawn for an identical period of time but will not receive a tone pre-exposure. […] Number of licks for each animal will be recorded and time taken to complete 80-90 licks (A) and 90-100 licks (B) recorded. […] A suppression ratio (SR) will be calculated according to the formula A/(A+B) yielding a scale of […]. […]
In a sixth series of experiments, the ability of the combined Tropisetron and Varenicline treatment to reverse the MK801 induced abnormally persistent latent inhibition effect will be assessed. […]

[2] = cited from earlier work

C[C@]12N[C@H](Cc3ccccc31)c1ccccc12 [MK801]
effect of MK801 on latent inhibition [1]: produce abnormally persistent latent inhibition

CN1[C@@H]2CC[C@H]1C[C@@H](OC(=O)c1c[nH]c3ccccc13)C2 [Tropisetron]
absorption from the gastrointestinal tract ([2]; background statement): almost completely absorbed | off-target gastrointestinal side effects ([2]; chronic administration, due to 5-HT3 receptor inhibitory activity): a reduction in gut transit and constipation | cognitive effects in patients with schizophrenia ([2]; patients with schizophrenia, background statement): some pro-cognitive effects
